In patent US12569563B2, “Selective HDAC6 degraders and methods of use thereof” (DANA-FARBER CANCER INSTITUTE, INC., priority 2019, dated 2026):

Molecular target: T1, CRBN (Homo sapiens, UniProt Q96SW2)
T1 construct: endogenous in cells; host or cells: Flp-In 293 cells stably expressing BRD4BD2-eGFP-P2A-mCherry
Assay: Cellular CRBN engagement assay (competition with dBET6, BRD4BD2-eGFP reporter)
Assay type: cell-based
Settings: Flip-In 293 BRD4BD2-eGFP cells, 100 nM dBET6, 5 h
Source text: The cellular CRBN engagement assay measures the cellular binding affinity which is the combination of the compound's cell permeability and their binding affinity to CRBN. This is done by measuring the ability of thalidomide-based degrader molecules to compete with pan-BET bromodomain degrader dBET6 (Nowak et al., Nat. Chem. Biol. 14:706-714 (2018)) for CRBN binding in cells. If no degrader compound is present in the cell, BRD4BRD2-eGFP is degraded by dBET6 via the proteasome system. […]
Cells were seeded at 30-50% confluency in either 24, 48 or 96 well plates (3524, 3548, 3596 respectively, Costar) a day before compound treatment. The inventive compounds were titrated in the presence of 100 nM dBET6 and then were incubated with cells for 5 h following trypsinization and resuspension in DMEM media, transferred into 96-well plates (353910, Falcon®) and analyzed by flow cytometer (Guava® easyCyte™ HT, Millipore®). Signal from at least 3000 events per well was acquired and the eGFP and mCherry florescence monitored. Data was analyzed using FlowJo® (FlowJo®, LCC). Forward and side scatter outliers, frequently associated with cell debris, were removed leaving >90% of total cells, followed by removal of eGFP and mCherry signal outliers, leaving 88-90% of total cells creating the set used for quantification. […]

- IC50: 5.37 µM
Compound: CN(C(=O)CCCCCNc1cccc2c1C(=O)N(C1CCC(=O)NC1=O)C2=O)c1ccc(NC(=O)CCCCCCC(=O)NO)cc1 (stereo not shown) [Compound 2, N^1-(4-(6-((2-(2,6-dioxopiperidin-3-yl)-1,3-dioxoisoindolin-4-yl)amino)-N-methylhexanamido)phenyl)-N^8-hydroxyoctanediamide]
